# In PMC10786919, “Design-rules for stapled peptides with in vivo activity and their application to Mdm2/X antagonists” (Nature Communications, 2024):
# Read-outs that look alike come from different tables or passages of the source. Positions of bridges follow the written chain, without caps; N, C: chain ends. Non-standard residues stand in square brackets, D forms with d. Residues, ends and D or L forms follow the SMILES beside them. Lys(N3) = [N-]=[N+]=NCCCC[C@H](N)C(=O)O; R8 = C=CCCCCCC[C@@](C)(N)C(=O)O; Cba = N[C@@H](CC1CCC1)C(=O)O; S5 = C=CCCC[C@](C)(N)C(=O)O; βAla = NCCC(=O)O
# Assays:
# [1] = tested on: p53 responsive β-lactamase reporter in HCT116 cells; experiment: cells; format: cell-based
# Method in brief: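 Read-out used the ToxBLAzer Dual Screen for β-lactamase driven by a stably integrated p53-responsive reporter. Assay: 8000 HCT116 cells per well at 0.5% final DMSO. Reported numbers are geometric means over a minimum of three biological replicates.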
# HCT116 cells = experiment: Lactate dehydrogenase (LDH) release assay; format: cell-based
# Method in brief: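 HCT116 cells stably carrying a p53-responsive β-lactamase reporter, seeded at 8000 cells/well, exposed to compound with 0.5% final DMSO. LDH release read with the CytoTox-ONE membrane integrity kit. Values are geometric means of at least three biological replicates.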
# [2] = tested on: Jump-In T-REx CHO-K1 BLA cells; experiment: cells; format: cell-based; details: for EC50: read-out: TETCHO: Counterscreen EC50
# [3] = tested on: cells transiently transfected with the NanoLuc-HaloTag vector; experiment: Nanoclick permeability assay; details: 4Hr
# Method in brief: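 Azido-peptide permeability was read as loss of NanoBRET signal (donor 450 nm, acceptor 610 nm) after adding NanoBret618-azide at 10 μM final.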
# EPSA = format: physicochemical
# [4] = Solubility assay (kinetic solubility, PBS pH 7); format: physicochemical; details: read-out: Solubility
# Method in brief: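 Std: 10 mM stock → 100 µM in ACN/MeOH/DMSO (10:80:10). Sol. [µM] = (sample peak area / std peak area) × std conc.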
# Ca Ski cell line = details: Ca Ski
# Method in brief: (§1)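 Compound dilution series (10 points, 3-fold, 10 mM top stock in DMSO) tested on overnight-plated Ca Ski cells in RPMI1640/10% FBS and on blasticidin-selected p53RE-bla HCT-116 cells in McCoy's 5A; read-out was CellTiter-Glo 2.0 luminescence after room-temperature equilibration.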
# [5] = tested on: CellSensor p53RE-bla HCT-116 Cell Line; details: read-out: Proliferation EC50 HCT116 (On-target); HCT116
# Method in brief: as §1
structure (smiles),measurement,setting,value
CC(=O)N[C@@H](CCCCN)C(=O)NCCCCCC(=O)N[C@H](C(=O)N[C@@H](CO)C(=O)N[C@@H](Cc1ccccc1)C(=O)N[C@]1(C)CCCCCCC=CCCC[C@@](C)(C(=O)N[C@@H](CCC(=O)O)C(=O)N[C@@H](CC(N)=O)C(=O)N[C@@H](Cc2ccccc2)C(N)=O)NC(=O)[C@H](CC(C)C)NC(=O)[C@H](CC(C)C)NC(=O)[C@H](C)NC(=O)[C@H](Cc2c[nH]c3ccccc23)NC(=O)[C@H](Cc2ccc(O)cc2)NC(=O)[C@H](CCC(=O)O)NC1=O)[C@@H](C)O [MP-82094],p53 reporter assay: % Effect,[1]; 0% FBS 4Hr,109.5%
same,EC50,"[1]; 0% FBS 4Hr, read-out: p53 reporter assay: EC50",1.55 µM
same,p53 reporter assay: % Effect,[1]; 10% FBS 4Hr,125.5%
same,EC50,"[1]; 10% FBS 4Hr, read-out: p53 reporter assay: EC50",3.92 µM
same,p53 reporter assay: % Effect,[1]; 10% FBS 16Hr,78.69%
same,EC50,"[1]; 10% FBS 16Hr, read-out: p53 reporter assay: EC50",16.1 µM
same,EC50,HCT116 cells,50.5 µM
same,TETCHO: Counterscreen % Effect,[2]; 0% FBS 4Hr,52.98%
same,EC50,[2]; 0% FBS 4Hr,45.8 µM
same,TETCHO: Counterscreen % Effect,[2]; 10% FBS 4Hr,49.08%
same,EC50,[2]; 10% FBS 4Hr,20 µM
same,TETCHO: Counterscreen % Effect,[2]; 10% FBS 16Hr,82.5%
same,EC50,[2]; 10% FBS 16Hr,7.15 µM
same,Nanoclick permeability assay % Effect,[3],69.87%
same,EPSA,EPSA,Poorly Behaved
"CC(=O)N[C@@H](CCCCN=[N+]=[N-])C(=O)NCCC(=O)N[C@@H](CC(C)C)C(=O)N[C@H](C(=O)N[C@@H](Cc1ccccc1)C(=O)N[C@]1(C)CCCCCCC=CCCC[C@@](C)(C(=O)N[C@@H](CCC(=O)O)C(=O)N[C@@H](C)C(=O)N[C@@H](C)C(=O)N[C@@H](C)C(=O)N[C@@H](C)C(=O)N[C@H](C)C(N)=O)NC(=O)[C@H](CC2CCC2)NC(=O)[C@H](CCC(N)=O)NC(=O)[C@H](C)NC(=O)[C@H](Cc2c[nH]c3ccccc23)NC(=O)[C@H](Cc2ccc(O)cc2)NC(=O)[C@H](CCC(=O)O)NC1=O)[C@@H](C)O [MP-834, Ac-K(N3)-(betaAla)-LTF-(R8)-EYWAQ-(Cba)-(S5)-EAAAA-(D-Ala)-NH2] (Ac-[Lys(N3)][βAla]LTF[R8]EYWAQ[Cba][S5]EAAAA[dA]-NH2; staple 6-13)",p53 reporter assay % Effect,[1]; 0% FBS 4Hr,103.2%
same,p53 reporter assay % Effect,[1]; 10% FBS 16Hr,95.7%
same,EC50,"[1]; read-out: Cell EC50 (4 hr, 0% FBS), p53 reporter assay, 4 hr, 0% FBS",1 µM
same,EC50,"[1]; read-out: Cell EC50 (16 hr, 10% FBS), p53 reporter assay, 16 hr, 10% FBS",3.4 µM
same,LDH: Cytotoxicity assay % Effect,HCT116 cells; 0% FBS 4Hr,6.58%
same,LDH: Cytotoxicity assay % Effect,HCT116 cells; 10% FBS 16Hr,9.756%
same,TETCHO: Counterscreen % Effect,[2]; 0% FBS 4Hr,-4.911%
same,TETCHO: Counterscreen % Effect,[2]; 0% FBS 16Hr,-7.249%
same,TETCHO: Counterscreen % Effect,[2]; 10% FBS 16Hr,-13.19%
same,solubility kinetic,[4],167 µM
same,Proliferation % inhibition at 50 µM Ca Ski,Ca Ski cell line; 50 µM,-3.2%
same,EC50,Ca Ski cell line; read-out: Proliferation EC50 Ca Ski (Off-target),> 49.8 µM
same,EC50,[5],1.4 µM
same,Nanoclick permeability assay % Effect,[3],121.4%
